target: T1, JAK2 (JH1domain-catalytic, Y1007F,Y1008F) kinase (Homo sapiens, UniProt O60674, Y1007F/Y1008F); assay: JAK2 JH1 Domain Binding Assay; settings: qPCR readout
T1 construct: JAK2 (JH1domain-catalytic, Y1007F,Y1008F) kinase was expressed as N-terminal fusion; made in house; host or cells: transiently transfected HEK293 cells
T1 sequence (O60674 849-1124 Y1007F/Y1008F limits assumed): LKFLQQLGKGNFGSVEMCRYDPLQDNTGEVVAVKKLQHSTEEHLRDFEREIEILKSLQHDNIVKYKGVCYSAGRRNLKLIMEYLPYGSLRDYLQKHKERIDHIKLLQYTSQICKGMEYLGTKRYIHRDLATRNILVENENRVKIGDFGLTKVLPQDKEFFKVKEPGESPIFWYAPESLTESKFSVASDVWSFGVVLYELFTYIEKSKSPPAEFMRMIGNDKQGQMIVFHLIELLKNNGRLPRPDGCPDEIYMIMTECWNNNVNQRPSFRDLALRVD

SMILES | Kd [nM]
COc1c(Oc2cnn3ccccc23)cnc2nc(Nc3cc(C4CC4)cn([C@H]4C[C@H](O)C4)c3=O)n(C)c12 [Example I-111, trans-5-cyclopropyl-1-(3-hydroxycyclobutyl)-3-((7-methoxy-1-methyl-6-(pyrazolo[1,5-a]pyridin-3-yloxy)-1H-imidazo[4,5-b]pyridin-2-yl)amino)pyridin-2(1H)-one] | < 10
COc1c(Oc2cnn3ccccc23)cnc2nc(Nc3cc(C4CC4)cn([C@H]4C[C@@H](O)C4)c3=O)n(C)c12 [Example I-112, cis-5-cyclopropyl-1-(3-hydroxycyclobutyl)-3-((7-methoxy-1-methyl-6-(pyrazolo[1,5-a]pyridin-3-yloxy)-1H-imidazo[4,5-b]pyridin-2-yl)amino)pyridin-2(1H)-one] | < 10
Cn1cc(-n2cc(C3CC3)cc(Nc3nc4ncc(Oc5cnn6ccccc56)c(Cl)c4n3C)c2=O)cn1 [Example I-115, 3-((7-chloro-1-methyl-6-(pyrazolo[1,5-a]pyridin-3-yloxy)-1H-imidazo[4,5-b]pyridin-2-yl)amino)-5-cyclopropyl-1-(1-methyl-1H-pyrazol-4-yl)pyridin-2(1H)-one] | < 10
COc1c(Oc2cnn3ccccc23)cnc2nc(Nc3cc(C4CC4)cn(CCCN4CCC(F)(F)C4)c3=O)n(C)c12 [Example I-123, 5-cyclopropyl-1-(3-(3,3-difluoropyrrolidin-1-yl)propyl)-3-((7-methoxy-1-methyl-6-(pyrazolo[1,5-a]pyridin-3-yloxy)-1H-imidazo[4,5-b]pyridin-2-yl)amino)pyridin-2(1H)-one] | 10 to 50
Cn1c(Nc2cc3n(n2)CCCC3(C)C)nc2ncc(Oc3cnn4ccnc(OCCO)c34)c(Cl)c21 [Example I-124, 2-((3-((7-chloro-2-((4,4-dimethyl-4,5,6,7-tetrahydropyrazolo[1,5-a]pyridin-2-yl)amino)-1-methyl-1H-imidazo[4,5-b]pyridin-6-yl)oxy)pyrazolo[1,5-a]pyrazin-4-yl)oxy)ethan-1-ol] | < 10
CNc1nccn2ncc(Oc3cnc4nc(Nc5cc6n(n5)CCCC6(C)C)n(C)c4c3Cl)c12 [Example I-125, 7-chloro-N-(4,4-dimethyl-4,5,6,7-tetrahydropyrazolo[1,5-a]pyridin-2-yl)-1-methyl-6-((4-(methylamino)pyrazolo[1,5-a]pyrazin-3-yl)oxy)-1H-imidazo[4,5-b]pyridin-2-amine] | 10 to 50
Cn1c(Nc2cc(C3CC3)nn(CCO)c2=O)nc2ncc(Oc3cnn4ccccc34)c(Cl)c21 [Example I-126, 4-((7-chloro-1-methyl-6-(pyrazolo[1,5-a]pyridin-3-yloxy)-1H-imidazo[4,5-b]pyridin-2-yl)amino)-6-cyclopropyl-2-(2-hydroxyethyl)pyridazin-3(2H)-one] | < 10
COc1c(Oc2cnc3cnc(C4CC4)n3c2)cnc2nc(Nc3cc(C(C)(C)C)n([C@H]4C[C@H](O)C4)n3)n(C)c12 [Example I-130, (1r,3r)-3-(5-(tert-butyl)-3-((6-((6-cyclopropylimidazo[1,5-a]pyrimidin-3-yl)oxy)-7-methoxy-1-methyl-1H-imidazo[4,5-b]pyridin-2-yl)amino)-1H-pyrazol-1-yl)cyclobutan-1-ol] | 10 to 50
COCCOc1nccn2ncc(Oc3cnc4nc(Nc5cc(C6CC6)cn(C)c5=O)n(C)c4c3Cl)c12 [Example I-135, 3-((7-chloro-6-((4-(2-methoxyethoxy)pyrazolo[1,5-a]pyrazin-3-yl)oxy)-1-methyl-1H-imidazo[4,5-b]pyridin-2-yl)amino)-5-cyclopropyl-1-methylpyridin-2(1H)-one] | < 10
Cn1cc(C2CC2)cc(Nc2nc3ncc(Oc4cnn5ccnc(OCCN6CCOCC6)c45)c(Cl)c3n2C)c1=O [Example I-136, 3-((7-chloro-1-methyl-6-((4-(2-morpholinoethoxy)pyrazolo[1,5-a]pyrazin-3-yl)oxy)-1H-imidazo[4,5-b]pyridin-2-yl)amino)-5-cyclopropyl-1-methylpyridin-2(1H)-one] | 10 to 50
Cn1c(Nc2cc(C(C)(C)C)n([C@H]3CCOC3)n2)nc2ncc(Oc3cnn4ccncc34)c(C#N)c21 [Example I-137, (S)-2-((5-(tert-butyl)-1-(tetrahydrofuran-3-yl)-1H-pyrazol-3-yl)amino)-1-methyl-6-(pyrazolo[1,5-a]pyrazin-3-yloxy)-1H-imidazo[4,5-b]pyridine-7-carbonitrile] | 10 to 50
Cn1c(Nc2cc(C3CC3)cn(CCO)c2=O)nc2ncc(Oc3cnn4cccc(F)c34)c(Cl)c21 [Example I-141, 3-((7-chloro-6-((4-fluoropyrazolo[1,5-a]pyridin-3-yl)oxy)-1-methyl-1H-imidazo[4,5-b]pyridin-2-yl)amino)-5-cyclopropyl-1-(2-hydroxyethyl)pyridin-2(1H)-one] | < 10
Cn1c(Nc2cc(C3CC3)nn([C@@H]3CCOC3)c2=O)nc2ncc(Oc3cnn4ccccc34)c(Cl)c21 [Example I-142, (R)-4-((7-chloro-1-methyl-6-(pyrazolo[1,5-a]pyridin-3-yloxy)-1H-imidazo[4,5-b]pyridin-2-yl)amino)-6-cyclopropyl-2-(tetrahydrofuran-3-yl)pyridazin-3(2H)-one] | < 10
Cn1c(Nc2cc(C3CC3)nn([C@H]3CCOC3)c2=O)nc2ncc(Oc3cnn4ccccc34)c(Cl)c21 [Example I-143, (S)-4-((7-chloro-1-methyl-6-(pyrazolo[1,5-a]pyridin-3-yloxy)-1H-imidazo[4,5-b]pyridin-2-yl)amino)-6-cyclopropyl-2-(tetrahydrofuran-3-yl)pyridazin-3(2H)-one] | < 10

Second part, the compound after the results:

Kd [nM] | SMILES
< 10 | Cn1nc(C2CC2)cc(Nc2nc3ncc(Oc4cnn5ccccc45)c(Cl)c3n2C)c1=O [Example I-116, 4-((7-chloro-1-methyl-6-(pyrazolo[1,5-a]pyridin-3-yloxy)-1H-imidazo[4,5-b]pyridin-2-yl)amino)-6-cyclopropyl-2-methylpyridazin-3(2H)-one]
< 10 | Cn1c(Nc2cc(C3CC3)cn(CCCN3CCC(F)(F)C3)c2=O)nc2ncc(Oc3cnn4ccncc34)c(Cl)c21 [Example I-117, 3-((7-chloro-1-methyl-6-(pyrazolo[1,5-a]pyrazin-3-yloxy)-1H-imidazo[4,5-b]pyridin-2-yl)amino)-5-cyclopropyl-1-(3-(3,3-difluoropyrrolidin-1-yl)propyl)pyridin-2(1H)-one]
10 to 50 | Cn1c(Nc2cc(C(F)(F)F)cn(CCCN3CCC(F)(F)C3)c2=O)nc2ncc(Oc3cnn4ccncc34)c(Cl)c21 [Example I-118, 3-((7-chloro-1-methyl-6-(pyrazolo[1,5-a]pyrazin-3-yloxy)-1H-imidazo[4,5-b]pyridin-2-yl)amino)-1-(3-(3,3-difluoropyrrolidin-1-yl)propyl)-5-(trifluoromethyl)pyridin-2(1H)-one]
< 10 | CN1CCN(Cc2ccc(Nc3nc4ncc(Oc5cnn6ccncc56)c(Cl)c4n3C)cc2C(F)(F)F)CC1 [Example I-120, 7-chloro-1-methyl-N-(4-((4-methylpiperazin-1-yl)methyl)-3-(trifluoromethyl)phenyl)-6-(pyrazolo[1,5-a]pyrazin-3-yloxy)-1H-imidazo[4,5-b]pyridin-2-amine]
10 to 50 | Cn1cc(C(F)(F)F)cc(Nc2nc3ncc(Oc4cnn5ccnc(OCCN6CCOCC6)c45)c(Cl)c3n2C)c1=O [Example I-127, 3-((7-chloro-1-methyl-6-((4-(2-morpholinoethoxy)pyrazolo[1,5-a]pyrazin-3-yl)oxy)-1H-imidazo[4,5-b]pyridin-2-yl)amino)-1-methyl-5-(trifluoromethyl)pyridin-2(1H)-one]
< 10 | CNc1nccn2ncc(Oc3cnc4nc(Nc5cc(C(F)(F)F)cn(C)c5=O)n(C)c4c3Cl)c12 [Example I-128, 3-((7-chloro-1-methyl-6-((4-(methylamino)pyrazolo[1,5-a]pyrazin-3-yl)oxy)-1H-imidazo[4,5-b]pyridin-2-yl)amino)-1-methyl-5-(trifluoromethyl)pyridin-2(1H)-one]
10 to 50 | Cn1c(Nc2cc(C3CC3)cn(CCCN3CCCC(F)(F)C3)c2=O)nc2ncc(Oc3cnn4ccncc34)c(Cl)c21 [Example I-129, 3-((7-chloro-1-methyl-6-(pyrazolo[1,5-a]pyrazin-3-yloxy)-1H-imidazo[4,5-b]pyridin-2-yl)amino)-5-cyclopropyl-1-(3-(3,3-difluoropiperidin-1-yl)propyl)pyridin-2(1H)-one]
< 10 | Cn1c(Nc2cc(C3CC3)cn(CC#N)c2=O)nc2ncc(Oc3cnn4ccncc34)c(Cl)c21 [Example I-132, 2-(3-((7-chloro-1-methyl-6-(pyrazolo[1,5-a]pyrazin-3-yloxy)-1H-imidazo[4,5-b]pyridin-2-yl)amino)-5-cyclopropyl-2-oxopyridin-1(2H)-yl)acetonitrile]
< 10 | CNc1nccn2ncc(Oc3cnc4nc(Nc5cc(C6CC6)cn(C)c5=O)n(C)c4c3Cl)c12 [Example I-134, 3-((7-chloro-1-methyl-6-((4-(methylamino)pyrazolo[1,5-a]pyrazin-3-yl)oxy)-1H-imidazo[4,5-b]pyridin-2-yl)amino)-5-cyclopropyl-1-methylpyridin-2(1H)-one]
10 to 50 | Cn1c(Nc2cc(C(F)(F)F)cn(CCCN3CCCC(F)(F)C3)c2=O)nc2ncc(Oc3cnn4ccncc34)c(Cl)c21 [Example I-138, 3-((7-chloro-1-methyl-6-(pyrazolo[1,5-a]pyrazin-3-yloxy)-1H-imidazo[4,5-b]pyridin-2-yl)amino)-1-(3-(3,3-difluoropiperidin-1-yl)propyl)-5-(trifluoromethyl)pyridin-2(1H)-one]
10 to 50 | Cn1c(Nc2cc(C(F)(F)F)cn(CCO)c2=O)nc2ncc(Oc3cnn4ccnc(N5CCOCC5)c34)c(Cl)c21 [Example I-140, 3-((7-chloro-1-methyl-6-((4-morpholinopyrazolo[1,5-a]pyrazin-3-yl)oxy)-1H-imidazo[4,5-b]pyridin-2-yl)amino)-1-(2-hydroxyethyl)-5-(trifluoromethyl)pyridin-2(1H)-one]
< 10 | Cn1cc(C(F)(F)C(F)(F)F)cc(Nc2nc3ncc(Oc4cnn5ccncc45)c(Cl)c3n2C)c1=O [Example I-144, 3-((7-chloro-1-methyl-6-(pyrazolo[1,5-a]pyrazin-3-yloxy)-1H-imidazo[4,5-b]pyridin-2-yl)amino)-1-methyl-5-(perfluoroethyl)pyridin-2(1H)-one]
